Values after ≈ are worked out from the molar mass of the structure shown. Read-outs that look alike come from different tables or passages of the source.
Tests used:
[1] = Human liver microsome intrinsic clearance; format: in vitro ADME; settings: for microsomal CLint: liver microsomes
[2] = Rat hepatocyte intrinsic clearance; format: in vitro ADME; settings: for hepatocyte CLint: hepatocytes
[3] = tested on: T. vivax STIB 719 / ILRAD 560; assay: Ex vivo drug sensitivity assay for T. vivax (48 h); format: cell-based; settings: Trypanosoma vivax, STIB719, 48 h
Protocol: Ex vivo drug sensitivity assay for T. vivax (48 h): Compounds were tested ex vivo against the STIB 719 / ILRAD 560 T. vivax (drug sensitive) strain which originated from the Y486 strain, isolated from a naturally infected bovine in 1976 in Zaria, Nigeria. Compounds were assayed in at least three separate, independent experiments and an 11-point dilution curve was used to determine the EC50 values. Bloodstream form trypanosomes were harvested from a highly parasitaemic mouse (via cardiac puncture) and were incubated with test compounds for 45 h at 37°C in a humidified atmosphere containing 5% CO2, supported in HMI-9 medium containing 20% bovine serum. Thereafter, Resazurin dye was added to monitor trypanosome viability as described in the preceding section.

[4] = tested on: T. b. brucei (strain 427); assay: T. b. brucei proliferation assay (PrestoBlue, 48 h); format: cell-based, Trypanosoma brucei brucei; settings: Trypanosoma brucei
How it was run: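 T. b. brucei strain 427, 2.5×10^3 per well in HMI-9, exposed to compounds from 50 μM in 1:2 dilutions, in triplicate. Incubated 48 h at 37°C, 5% CO2. PrestoBlue added for 4 h more, fluorescence read at ex 530/em 590 nm.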

[5] = Human plasma protein binding; format: in vitro ADME; settings: for fraction unbound: read-out: Human PPB (converted)
T. congolense IL3000 = assay: In vitro drug sensitivity assay for T. congolense (72 h); format: cell-based; settings: Trypanosoma congolense, IL3000 strain
Protocol: In vitro drug sensitivity assay for T. congolense (72 h): Compounds were tested in vitro for efficacy against the IL3000 T. congolense (drug sensitive) strain which was originally derived from the Trans Mara I strain, isolated from a bovine in 1966 in Kenya. […] Compounds were assayed in at least three separate, independent experiments and an 11-point dilution curve was used to determine the EC50 values. Bloodstream form trypanosomes were supported in HMI-9 medium containing 20% bovine serum and were incubated with test compounds for 69 h at 34°C in a humidified atmosphere containing 5% CO2. Thereafter, 10 μL of Resazurin dye (12.5 mg in 100 mL of phosphate-buffered saline, Sigma-Aldrich, Buchs, Switzerland) was added for an additional 3 h. Plates were read using a fluorescence plate reader (Spectramax, Gemini XS, Bucher Biotec, Basel, Switzerland) using an excitation wavelength of 536 nm and an emission wavelength of 588 nm.

[6] = tested on: T. cruzi amastigote (Tulahuen strain expressing β-galactosidase); assay: Intracellular T. cruzi assay in 3T3 cells (beta-galactosidase, 96 h); format: cell-based, Trypanosoma cruzi; settings: for EC50: Trypanosoma cruzi, TULAHUEN, read-out: T. cruzi amastigote EC50
How it was run: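 3T3 cells in phenol-red-free DMEM with 2% FBS were infected with Tulahuen β-galactosidase trypomastigotes, 5×10^4 per well, and exposed to compounds from 50 μM in 1:2 serial dilutions, in triplicate. After 96 h at 37°C, 5% CO2, 500 μM CPRG in PBS with 0.5% NP40 was added for 4 h; absorbance was read at 590–595 nm.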

P. fal. D6 = tested on: P. fal. D6; design: method as in PMID 26087257, PMID 29301082; settings: previously reported; cited from earlier work
L. major amastigote = assay: L. major intracellular amastigote luciferase assay in RAW 264.7 macrophages; format: cell-based, Leishmania major; settings: Leishmania major, RAW264.7; intracellular amastigotes in RAW 264.7 macrophages, 96 h
How it was run: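 Murine RAW 264.7 macrophages were infected overnight with luciferase-expressing L. major metacyclic promastigotes (MOI 1:10). Non-internalized parasites were washed off before 96 h compound exposure (0.5–10,000 ng/mL) at 37°C, 5% CO2.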

Aqueous solubility = format: physicochemical
[7] = design: method as in PMID 29301082; settings: lapatinib, Fig 1; cited from earlier work
LogD7.4 = format: physicochemical; settings: pH 7.4
NIH/3T3 cells = assay: Drug toxicity to 3T3 cells (Alamar Blue, 96 h); format: cell-based
Protocol: In a 96-well plate, 5×10^4 NIH/3T3 (ATCC CRL-1658) cells (purchased from ATCC) in DMEM without phenol red supplemented with 2% FBS were added to each well. Cells were incubated for 2 h to allow for attachment. Compounds were added in triplicates at 200 μM and in serial dilutions 1:2 and incubated at 37°C, 5% CO2 for 96 h. […] Following incubation, 10 μL of Alamar Blue (ThermoFisher) were added to each well and cells incubated at 37°C, 5% CO2 for 4 h. Absorbance was read at 590–595 nm.

HepG2 cells = assay: Drug toxicity to HepG2 cells (MTT, 48 h); format: cell-based, human; settings: tested concentration ranges based on compound solubility
How it was run: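 HepG2 cells plated overnight, then exposed 48 h to twelve 1.6-fold dilutions (57–10,000 ng/mL) in duplicate at 37° C, 5% CO2. MTT added for 1 h at room temperature; formazan dissolved in acidified isopropanol, absorbance read.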

Structure (SMILES): CN1CCN(S(=O)(=O)c2ccc(-c3ccc4c(Nc5ccc(OCc6cccc(F)c6)c(Cl)c5)ccnc4c3)cc2)CC1 [Compound 1]
- microsomal CLint [1]: 140 µL/min/mg
- Rat Hepatocyte CLint [2]: 20 μL/min/10^6 cells
- EC50 [3]: 0.04 µM
- EC50 [4]: 0.079 µM
- fraction unbound [5]: < 0.01
- EC50 (T. congolense IL3000): 0.14 µM
- EC50 ([6]; NIH3T3, 96 h): 0.73 µM
- EC50 (P. fal. D6): 0.019 µM
- EC50 (L. major amastigote): 1.6 µM
- solubility (Aqueous solubility): 0.3 µM (≈ 0.185 µg/mL)

Structure (SMILES): CS(=O)(=O)CCNCc1ccc(-c2ccc3ncnc(Nc4ccc(OCc5cccc(F)c5)c(Cl)c4)c3c2)o1 [Lapatinib, lapatinib, reference compound]
- EC50 ([6]; NIH3T3, intracellular in 3T3 cells, 96 h): 13 µM
- solubility [7]: 12 µM (≈ 6.97 µg/mL)
- EC50 (P. fal. D6): 0.47 µM
- EC50 (L. major amastigote): 11 µM

Structure (SMILES): COc1ccc(Nc2ccnc3cc(-c4cnc(N5CCN(C)CC5)nc4)ccc23)cc1Cl [Compound 23]
- Human Liver Microsome CLint [1]: 170 µL/min/mg
- hepatocyte CLint [2]: 45 µL/min/1e6 cells
- EC50 [3]: 0.04 µM
- Human PPB [5]: 98%
- LogD7.4 (LogD7.4): 4.3
- EC50 (T. congolense IL3000): 0.14 µM
- EC50 ([6]; NIH3T3, 96 h): 0.62 µM
- 3T3 TC50 (NIH/3T3 cells): 4.9 µM
- HepG2 TC50 (HepG2 cells): > 3 µM
- EC50 (L. major amastigote): 2 µM
- solubility (Aqueous solubility): < 1 µM

Structure (SMILES): Fc1cccc(COc2ccc(Nc3ccnc4cc(-c5cn[nH]c5)ccc34)cc2Cl)c1 [Compound 16]
- microsomal CLint [1]: < 3 µL/min/mg
- hepatocyte CLint [2]: 17 µL/min/1e6 cells
- EC50 [3]: 0.15 µM
- EC50 [4]: 0.11 µM
- fraction unbound [5]: < 0.01
- logD (LogD7.4): 4.6
- EC50 (T. congolense IL3000): 0.47 µM
- EC50 ([6]; NIH3T3, 96 h): 0.92 µM
- SI (T. cruzi) ([6]; selectivity index calculated relative to 3T3 cells): 2.5
- EC50 (L. major amastigote): 0.83 µM
- solubility (Aqueous solubility): 12 µM (≈ 5.34 µg/mL)

Structure (SMILES): COc1ccc(Nc2ccnc3cc(-c4ccc(S(=O)(=O)N5CCN(C)CC5)cc4)ccc23)cc1Cl [Compound 6]
- microsomal CLint [1]: 270 µL/min/mg
- hepatocyte CLint [2]: 44 µL/min/1e6 cells
- EC50 [3]: 0.16 µM
- EC50 [4]: 0.22 µM
- Human PPB [5]: 99%
- logD (LogD7.4): < 1
- EC50 (T. congolense IL3000): 0.86 µM
- EC50 ([6]; NIH3T3, 96 h): 3.8 µM
- EC50 (L. major amastigote): 1.4 µM
- solubility (Aqueous solubility): 100 µM (≈ 52.3 µg/mL)

From publication PMC6283615, “Anilinoquinoline based inhibitors of trypanosomatid proliferation” (PLoS Neglected Tropical Diseases, 2018)
